Assay results as given in article PMC9898036, “VIP152 is a selective CDK9 inhibitor with pre-clinical in vitro and in vivo efficacy in chronic lymphocytic leukemia” (Leukemia, 2022).

What was measured:
CDK9 = CDK9 (Homo sapiens, UniProt P50750); experiment: KINOMEscan: CDK9; assay type: binding
Experimental: The structure and synthesis of VIP152 were recently described by Lücking et al.. (Fig. 1A); however, the selectivity of the molecule in cellular systems has yet to be explored. […] We also performed this experiment at 1000 nM, where CDK9 was inhibited at 99%. […] We found a strong concordance between our data and those of Lücking when comparing the most inhibited kinases. Potential off-target effects of VIP152 were next tested in vitro at a concentration of 10 µM for off-target activity against a broad range of receptors, transporters, ion channels, and enzymes (n = 138) using the Eurofins Diversity Panel.
Kinomescan Kinase Profiling Assay
Kinomescan Assay was performed at DiscoverRX and described in Fabian, et al. 2005, Nat.
Biotechnol. In brief, kinases were produced and subsequently tagged with DNA for qPCR detection.
Streptavidin-coated magnetic beads were bound to biotinylated kinase ligands to serve as a solid support.
VIP152 was dissolved in DMSO and tested across a 10 serial threefold dilution set and compared to a test compound and a DMSO control. Kinases which were inhibited by VIP152 would not be bound to the solid-support resulting in decreased substrate for the qPCR reaction. Kinome map was produced via TreeSpot Analysis from DiscoverRX. […]
NanoBRETTM Target Engagement Assay Protocol […]
Complete 20X NanoBRET Tracer Reagent was prepared with Tracer Dilution Buffer and dispensed at a ratio of 1:20 Reagent to cells in the tube. The cell

[1] = test system: relapsed/refractory primary CLL samples; experiment: Annexin V/propidium iodide flow cytometry; assay type: cell-based; conditions: Homo sapiens; 8 BTKi/venetoclax relapsed/refractory samples; 24 h; read-out: IC50 (50% killing)
Adrenergic α1D = Adrenergic α1D (Homo sapiens, UniProt P25100); experiment: Eurofins Diversity Panel; assay type: binding; conditions: hum, Conc. 10 μM
Histamine H2 = Histamine H2 (Homo sapiens, UniProt P25021); experiment: Eurofins Diversity Panel; assay type: binding; conditions: hum, Conc. 10 μM
[2] = molecular target: Leukotriene, Cysteinyl CysLT1 (Homo sapiens, UniProt Q9Y271); experiment: Eurofins Diversity Panel; assay type: binding; conditions: hum, Conc. 10 μM
Opiate δ1 (OP1, DOP) = Opiate δ1 (OP1, DOP) (Homo sapiens, UniProt P41143); experiment: Eurofins Diversity Panel; assay type: binding; conditions: hum, Conc. 10 μM
Opiate κ(OP2, KOP) = Opiate κ(OP2, KOP) (Homo sapiens, UniProt P41145); experiment: Eurofins Diversity Panel; assay type: binding; conditions: hum, Conc. 10 μM
[3] = molecular target: RSK3(Kin.Dom.2-C-terminal) (Homo sapiens, UniProt Q15349); experiment: KINOMEscan: RSK3(Kin.Dom.2-C-terminal); assay type: binding; conditions: 100 nM, read-out: Percent Control
S6K1 = S6K1 (Homo sapiens, UniProt P23443); experiment: KINOMEscan: S6K1; assay type: binding; conditions: 100 nM, read-out: Percent Control
STK16 = STK16 (Homo sapiens, UniProt O75716); experiment: KINOMEscan: STK16; assay type: binding; conditions: 100 nM, read-out: Percent Control
TNNI3K = TNNI3K (Homo sapiens, UniProt Q59H18); experiment: KINOMEscan: TNNI3K; assay type: binding; conditions: 100 nM, read-out: Percent Control
Chain of TNNI3K (Q59H18 whole entry): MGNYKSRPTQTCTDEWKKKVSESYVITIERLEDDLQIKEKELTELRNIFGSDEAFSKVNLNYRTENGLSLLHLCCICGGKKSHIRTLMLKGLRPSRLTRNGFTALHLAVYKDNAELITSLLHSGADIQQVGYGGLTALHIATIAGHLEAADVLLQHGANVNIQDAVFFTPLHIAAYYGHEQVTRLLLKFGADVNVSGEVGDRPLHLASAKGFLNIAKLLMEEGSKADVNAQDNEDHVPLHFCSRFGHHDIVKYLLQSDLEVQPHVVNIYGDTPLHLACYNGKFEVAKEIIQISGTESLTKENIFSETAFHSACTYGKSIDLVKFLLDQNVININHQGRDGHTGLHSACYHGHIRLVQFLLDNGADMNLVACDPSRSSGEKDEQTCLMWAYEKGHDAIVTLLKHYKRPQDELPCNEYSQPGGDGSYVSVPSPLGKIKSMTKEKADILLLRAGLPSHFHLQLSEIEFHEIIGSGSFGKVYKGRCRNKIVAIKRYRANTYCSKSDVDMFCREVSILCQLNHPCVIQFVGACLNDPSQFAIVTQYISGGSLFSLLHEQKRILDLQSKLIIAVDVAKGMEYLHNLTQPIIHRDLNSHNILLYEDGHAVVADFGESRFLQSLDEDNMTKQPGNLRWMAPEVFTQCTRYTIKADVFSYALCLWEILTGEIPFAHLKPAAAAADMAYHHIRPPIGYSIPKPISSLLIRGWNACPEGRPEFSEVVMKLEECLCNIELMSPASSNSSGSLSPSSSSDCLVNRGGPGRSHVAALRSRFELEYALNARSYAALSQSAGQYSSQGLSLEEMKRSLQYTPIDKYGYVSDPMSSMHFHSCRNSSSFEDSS

TRKA = TRKA (Homo sapiens, UniProt P04629); experiment: KINOMEscan: TRKA; assay type: binding; conditions: 100 nM, read-out: Percent Control
Chain of TRKA (P04629 33-796): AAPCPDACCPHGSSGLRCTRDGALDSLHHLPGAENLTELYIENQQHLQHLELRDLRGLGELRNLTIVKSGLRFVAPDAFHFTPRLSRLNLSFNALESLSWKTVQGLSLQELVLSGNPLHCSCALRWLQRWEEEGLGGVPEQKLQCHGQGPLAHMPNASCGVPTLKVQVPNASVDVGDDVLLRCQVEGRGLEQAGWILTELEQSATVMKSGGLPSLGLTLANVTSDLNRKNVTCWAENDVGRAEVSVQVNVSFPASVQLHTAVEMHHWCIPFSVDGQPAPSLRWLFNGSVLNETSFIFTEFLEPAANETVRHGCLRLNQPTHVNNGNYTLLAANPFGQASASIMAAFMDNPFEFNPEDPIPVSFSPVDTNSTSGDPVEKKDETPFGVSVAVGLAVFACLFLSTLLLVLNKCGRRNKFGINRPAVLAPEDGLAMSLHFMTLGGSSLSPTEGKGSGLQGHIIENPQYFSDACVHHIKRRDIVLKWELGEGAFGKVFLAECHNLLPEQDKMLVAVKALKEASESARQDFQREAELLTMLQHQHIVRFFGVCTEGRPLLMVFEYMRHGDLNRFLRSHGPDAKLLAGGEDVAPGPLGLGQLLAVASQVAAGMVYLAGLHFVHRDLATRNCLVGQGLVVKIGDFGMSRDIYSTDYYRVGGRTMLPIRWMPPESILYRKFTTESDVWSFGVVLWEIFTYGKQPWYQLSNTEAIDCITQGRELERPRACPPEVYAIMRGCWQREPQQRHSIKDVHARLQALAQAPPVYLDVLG

[4] = molecular target: TYK2(JH2domain-pseudokinase) (Homo sapiens, UniProt P29597); experiment: KINOMEscan: TYK2(JH2domain-pseudokinase); assay type: binding; conditions: 100 nM, read-out: Percent Control
Chain of TYK2(JH2domain-pseudokinase) (P29597 556-888 limits assumed): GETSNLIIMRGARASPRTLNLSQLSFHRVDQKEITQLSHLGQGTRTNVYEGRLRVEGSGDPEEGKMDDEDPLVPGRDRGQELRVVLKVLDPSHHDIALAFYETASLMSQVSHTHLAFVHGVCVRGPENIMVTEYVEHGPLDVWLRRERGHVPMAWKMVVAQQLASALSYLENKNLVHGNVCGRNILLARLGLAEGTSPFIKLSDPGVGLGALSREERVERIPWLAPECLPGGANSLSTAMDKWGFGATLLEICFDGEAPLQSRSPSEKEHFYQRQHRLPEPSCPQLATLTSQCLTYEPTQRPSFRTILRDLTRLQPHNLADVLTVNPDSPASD

VEGFR2 = VEGFR2 (Homo sapiens, UniProt P35968); experiment: KINOMEscan: VEGFR2; assay type: binding; conditions: 100 nM, read-out: Percent Control
YES = YES (Homo sapiens, UniProt P07947); experiment: KINOMEscan: YES; assay type: binding; conditions: 100 nM, read-out: Percent Control
Chain of YES (P07947 whole entry): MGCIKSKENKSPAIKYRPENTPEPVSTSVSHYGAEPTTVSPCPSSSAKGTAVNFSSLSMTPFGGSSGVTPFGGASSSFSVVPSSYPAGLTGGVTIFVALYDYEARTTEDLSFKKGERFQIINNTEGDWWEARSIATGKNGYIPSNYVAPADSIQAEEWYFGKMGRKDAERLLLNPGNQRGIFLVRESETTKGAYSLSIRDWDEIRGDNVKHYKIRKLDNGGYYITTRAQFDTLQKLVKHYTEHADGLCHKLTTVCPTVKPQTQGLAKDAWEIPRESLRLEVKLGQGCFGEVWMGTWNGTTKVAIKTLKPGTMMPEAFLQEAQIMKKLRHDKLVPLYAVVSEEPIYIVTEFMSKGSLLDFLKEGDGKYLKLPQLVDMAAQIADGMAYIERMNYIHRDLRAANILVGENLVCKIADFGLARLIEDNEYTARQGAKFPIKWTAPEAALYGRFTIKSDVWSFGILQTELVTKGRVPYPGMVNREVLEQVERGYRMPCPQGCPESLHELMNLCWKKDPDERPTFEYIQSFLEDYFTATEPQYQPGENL

ALK(C1156Y) = ALK(C1156Y) (Homo sapiens, UniProt Q9UM73, C1156Y); experiment: KINOMEscan: ALK(C1156Y); assay type: binding; conditions: 1000 nM, read-out: Percent Control
BRK = BRK (Homo sapiens, UniProt Q13882); experiment: KINOMEscan: BRK; assay type: binding; conditions: 1000 nM, read-out: Percent Control
Chain of BRK (Q13882 whole entry): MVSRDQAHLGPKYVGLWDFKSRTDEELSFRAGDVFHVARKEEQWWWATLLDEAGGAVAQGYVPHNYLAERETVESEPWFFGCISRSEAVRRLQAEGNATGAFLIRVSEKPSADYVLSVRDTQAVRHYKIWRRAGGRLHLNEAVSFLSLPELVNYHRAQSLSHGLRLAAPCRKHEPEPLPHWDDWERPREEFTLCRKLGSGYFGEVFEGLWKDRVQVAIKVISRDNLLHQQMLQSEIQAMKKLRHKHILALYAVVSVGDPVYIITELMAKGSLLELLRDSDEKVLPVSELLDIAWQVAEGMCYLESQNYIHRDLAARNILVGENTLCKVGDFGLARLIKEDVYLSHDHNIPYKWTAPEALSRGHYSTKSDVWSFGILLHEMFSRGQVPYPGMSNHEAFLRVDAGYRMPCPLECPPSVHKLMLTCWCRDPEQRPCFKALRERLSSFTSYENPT

CAMK4 = CAMK4 (Homo sapiens, UniProt Q16566); experiment: KINOMEscan: CAMK4; assay type: binding; conditions: 1000 nM, read-out: Percent Control
CDK4-cyclinD3 = CDK4-cyclinD3 (Homo sapiens, UniProt P11802); experiment: KINOMEscan: CDK4-cyclinD3; assay type: binding; conditions: 1000 nM, read-out: Percent Control
CHEK2 = CHEK2 (Homo sapiens, UniProt O96017); experiment: KINOMEscan: CHEK2; assay type: binding; conditions: 1000 nM, read-out: Percent Control
Chain of CHEK2 (O96017 whole entry): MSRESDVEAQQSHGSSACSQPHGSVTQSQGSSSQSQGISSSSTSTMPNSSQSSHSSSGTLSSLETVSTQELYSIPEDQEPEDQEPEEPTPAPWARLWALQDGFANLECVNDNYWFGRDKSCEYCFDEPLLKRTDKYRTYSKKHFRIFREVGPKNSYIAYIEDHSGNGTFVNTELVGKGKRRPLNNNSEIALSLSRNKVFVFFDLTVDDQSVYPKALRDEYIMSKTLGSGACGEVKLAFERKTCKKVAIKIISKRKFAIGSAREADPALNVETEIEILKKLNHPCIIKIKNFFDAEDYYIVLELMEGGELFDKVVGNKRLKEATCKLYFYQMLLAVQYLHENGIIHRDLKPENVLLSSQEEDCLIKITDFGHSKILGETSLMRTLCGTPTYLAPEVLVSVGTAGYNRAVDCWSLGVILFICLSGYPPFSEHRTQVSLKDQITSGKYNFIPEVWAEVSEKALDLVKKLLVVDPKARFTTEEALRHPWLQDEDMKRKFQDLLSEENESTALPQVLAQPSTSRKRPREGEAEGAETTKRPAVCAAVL

DMPK = DMPK (Homo sapiens, UniProt Q09013); experiment: KINOMEscan: DMPK; assay type: binding; conditions: 1000 nM, read-out: Percent Control
EGFR(S752-I759del) = EGFR(S752-I759del) (Homo sapiens, UniProt P00533, DEL752-759); experiment: KINOMEscan: EGFR(S752-I759del); assay type: binding; conditions: 1000 nM, read-out: Percent Control
FLT3(ITD,F691L) = experiment: KINOMEscan: FLT3(ITD,F691L); assay type: binding, human; conditions: 1000 nM
FLT3(K663Q) = FLT3(K663Q) (Homo sapiens, UniProt P36888, K663Q); experiment: KINOMEscan: FLT3(K663Q); assay type: binding; conditions: 1000 nM, read-out: Percent Control
HCK = HCK (Homo sapiens, UniProt P08631); experiment: KINOMEscan: HCK; assay type: binding; conditions: 1000 nM, read-out: Percent Control
Chain of HCK (P08631 whole entry): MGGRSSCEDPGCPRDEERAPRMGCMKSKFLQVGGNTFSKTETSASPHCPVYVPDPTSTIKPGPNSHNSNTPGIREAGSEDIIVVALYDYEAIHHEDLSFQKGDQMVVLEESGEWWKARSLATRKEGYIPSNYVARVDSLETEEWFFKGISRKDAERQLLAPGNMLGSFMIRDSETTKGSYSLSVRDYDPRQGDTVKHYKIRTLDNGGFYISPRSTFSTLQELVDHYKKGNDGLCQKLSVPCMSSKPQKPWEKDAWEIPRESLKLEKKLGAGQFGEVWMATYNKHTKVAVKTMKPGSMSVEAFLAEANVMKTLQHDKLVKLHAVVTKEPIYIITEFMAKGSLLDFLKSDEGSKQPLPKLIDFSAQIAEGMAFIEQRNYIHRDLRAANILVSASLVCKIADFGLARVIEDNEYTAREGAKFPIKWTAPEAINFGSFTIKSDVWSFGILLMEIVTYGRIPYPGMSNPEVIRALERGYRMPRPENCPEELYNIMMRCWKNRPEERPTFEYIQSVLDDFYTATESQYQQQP

IRAK4 = IRAK4 (Homo sapiens, UniProt Q9NWZ3); experiment: KINOMEscan: IRAK4; assay type: binding; conditions: 1000 nM, read-out: Percent Control
KIT(D816H) = KIT(D816H) (Homo sapiens, UniProt P10721, D816H); experiment: KINOMEscan: KIT(D816H); assay type: binding; conditions: 1000 nM, read-out: Percent Control
MAP4K3 = MAP4K3 (Homo sapiens, UniProt Q8IVH8); experiment: KINOMEscan: MAP4K3; assay type: binding; conditions: 1000 nM, read-out: Percent Control
MARK4 = MARK4 (Homo sapiens, UniProt Q96L34); experiment: KINOMEscan: MARK4; assay type: binding; conditions: 1000 nM, read-out: Percent Control
MEK1 = MEK1 (Homo sapiens, UniProt Q02750); experiment: KINOMEscan: MEK1; assay type: binding; conditions: 1000 nM, read-out: Percent Control
Chain of MEK1 (Q02750 whole entry): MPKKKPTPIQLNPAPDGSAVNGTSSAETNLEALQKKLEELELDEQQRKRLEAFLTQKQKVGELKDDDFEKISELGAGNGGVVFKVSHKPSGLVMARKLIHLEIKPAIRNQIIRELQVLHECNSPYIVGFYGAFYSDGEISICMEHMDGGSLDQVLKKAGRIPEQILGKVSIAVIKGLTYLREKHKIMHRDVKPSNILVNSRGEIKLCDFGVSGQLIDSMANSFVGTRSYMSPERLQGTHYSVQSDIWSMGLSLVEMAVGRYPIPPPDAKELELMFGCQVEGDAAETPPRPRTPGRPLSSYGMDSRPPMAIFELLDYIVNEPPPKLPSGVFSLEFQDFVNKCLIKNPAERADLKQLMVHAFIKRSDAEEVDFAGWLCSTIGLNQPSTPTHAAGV

MEK6 = MEK6 (Homo sapiens, UniProt P52564); experiment: KINOMEscan: MEK6; assay type: binding; conditions: 1000 nM, read-out: Percent Control
OSU-CLL = experiment: Annexin V/propidium iodide flow cytometry; conditions: compared with HG-3 and MEC-1; 24, 48, 72 h
Experimental: HG-3, MEC-1, and OSU-CLL were cultured for 24, 48, and 72 h with VIP152 or DMSO.
MTS Proliferation Studies, Annexin V/PI Flow Cytometry
For apoptosis assays of primary CLL, cells were acquired under an institutional reviewer board-approved protocol with informed consent. Leukemia cells were isolated from whole blood utilizing RosetteSep Human B Cell Enrichment Cocktail ([sequence]). Stromal
coculture was done by plating HS-5 stromal cells (50% confluent) in a 6-well plate 24 hours before the addition of CLL cells. CLL cells were added to the plate with VIP152 and allowed to incubate for four hours upon which the cells were centrifuged and replated using 50% HS-5 conditioned media. Apoptosis was measured utilizing FITC-conjugated Annexin-V and Propidium Iodide (Leinco) on a Beckmann-Coulter Cytoflex. Primary samples were excluded from analysis if the viability of the DMSO group was <40% as defined by Annexin-V/Propdium Iodide-/- cells. Single-color controls were utilized for compensation using pooled primary cell sample heated for

Chain of CDK9 (P50750 whole entry): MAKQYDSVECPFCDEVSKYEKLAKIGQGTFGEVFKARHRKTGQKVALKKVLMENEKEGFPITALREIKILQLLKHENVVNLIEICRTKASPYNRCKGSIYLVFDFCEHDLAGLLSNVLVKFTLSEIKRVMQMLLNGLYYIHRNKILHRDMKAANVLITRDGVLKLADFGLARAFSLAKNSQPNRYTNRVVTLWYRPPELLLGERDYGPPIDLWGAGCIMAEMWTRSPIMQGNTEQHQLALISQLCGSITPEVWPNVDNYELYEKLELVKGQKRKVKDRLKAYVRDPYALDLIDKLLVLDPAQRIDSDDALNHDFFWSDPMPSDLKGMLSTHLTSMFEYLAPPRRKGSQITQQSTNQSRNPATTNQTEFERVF

`COc1cc(F)ccc1-c1cc(Nc2cc(CS(C)(=N)=O)ccn2)ncc1F` (stereo not drawn) [VIP152] was tested, and the “inhibition of CDK9 greater than that of CDK7” value (CDK9; 100 nM) was 7 fold, the inhibition at 0.1 µM (CDK9; 100 nM, read-out: inhibition of CDK9 activity compared with control) was 95.3% and the inhibition at 1 µM (CDK9; 1000 nM) was 99%. The remaining binding at 0.1 µM (CDK9; CDK9, 100 nM, read-out: Percent Control) was 4.7%, the remaining binding at 1 µM (CDK9; CDK9, 1000 nM, read-out: Percent Control) was 1% and the IC50 [1] was roughly 1000 nM. The inhibition at 10 µM (Adrenergic α1D) was 19%, the inhibition at 10 µM (Histamine H2) was 23% and the inhibition at 10 µM [2] was -22%. The inhibition at 10 µM (Opiate δ1 (OP1, DOP)) was 9%, the inhibition at 10 µM (Opiate κ(OP2, KOP)) was 8% and the remaining binding at 0.1 µM [3] was 100%. It also gave a remaining binding at 0.1 µM (S6K1) of 96%, a remaining binding at 0.1 µM (STK16) of 100% and a remaining binding at 0.1 µM (TNNI3K) of 100%. It also gave a remaining binding at 0.1 µM (TRKA) of 65%, a remaining binding at 0.1 µM [4] of 100% and a remaining binding at 0.1 µM (VEGFR2) of 89%. For the same compound, the remaining binding at 0.1 µM (YES) was 100%, the remaining binding at 1 µM (ALK(C1156Y)) was 71% and the remaining binding at 1 µM (BRK) was 79%. For the same compound, the remaining binding at 1 µM (CAMK4) was 100%, the remaining binding at 1 µM (CDK4-cyclinD3) was 14% and the remaining binding at 1 µM (CHEK2) was 77%. For the same compound, the remaining binding at 1 µM (DMPK) was 62%, the remaining binding at 1 µM (EGFR(S752-I759del)) was 97% and the “Percent Control” value (FLT3(ITD,F691L)) was 78%. The remaining binding at 1 µM (FLT3(K663Q)) was 80%, the remaining binding at 1 µM (HCK) was 82% and the remaining binding at 1 µM (IRAK4) was 78%. For the same compound, the remaining binding at 1 µM (KIT(D816H)) was 59%, the remaining binding at 1 µM (MAP4K3) was 57% and the remaining binding at 1 µM (MARK4) was 88%. For the same compound, the remaining binding at 1 µM (MEK1) was 85%, the remaining binding at 1 µM (MEK6) was 94% and the “sensitivity to induction of apoptosis” value (OSU-CLL) was “highest sensitivity to induction of apoptosis”.
